The source of these data is patent US11091498B2, “Topoisomerase poisons” (Rutgers, The State University of New Jersey, priority 2016, dated 2021).

This data set deals with KBH5.0 (a variant that overexpresses BCRP). Put plainly: Test B. Efflux Assay: relative cytotoxicity, parent KB3-1 vs KBH5.0. It is filed as cell-based. The note with it: relative cytotoxicity between parent KB3-1 and variant KBH5.0 cell lines. Here is the method: The ability of a compound described herein to be actively transported can be determined using pharmacological models that are well known in the art, for example, using a model like test B described below.
The cytotoxicity of the representative compounds of the invention were also tested against cell line KB3-1 (parent cell line), KBV-1 (a variant that overexpresses efflux transporter MDR1) and KBH5.0 (a variant that overexpresses BCRP). Differences in the relative cytotoxicity between the parent and variant cell lines may be indicative of a compound that is a substrate for an efflux transporter. […] Accordingly, compounds of the invention may be useful to treat tumors that are resistant to other anticancer agents, including anticancer agents that are susceptible to efflux by BCRP (e.g. anthracyclines, mitoxantrone, topotecan, irinotecan, bisanthrone, doxorubicin, daunorubicin, and epirubin.

Regarding `COc1cc2c(=O)n(CCN(C)C(=O)C3CCN(C)CC3)c3c4cc5c(cc4ncc3c2cc1OC)OCO5` [Example 2], the “substrate for efflux transporter BCRP” value is “not a substrate for BCRP”.
